Reference: US8658604B2, “Template-fixed beta-hairpin peptidomimetics with protease inhibitory activity” (Polyphor Ltd, priority 2005, dated 2014)
Where a SMILES comes first, the peptide text is derived from it.

Target: T1, CathepsinG, from human neutrophils (Homo sapiens, UniProt P08311)
T1 sequence (P08311 21-244): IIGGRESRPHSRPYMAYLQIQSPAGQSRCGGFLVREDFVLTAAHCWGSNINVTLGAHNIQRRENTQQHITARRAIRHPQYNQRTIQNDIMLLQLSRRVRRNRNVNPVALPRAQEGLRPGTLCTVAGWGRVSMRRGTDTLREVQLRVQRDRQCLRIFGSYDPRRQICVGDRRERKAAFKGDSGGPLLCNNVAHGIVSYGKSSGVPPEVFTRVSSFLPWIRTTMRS
Assay: Enzymatic assay, cathepsin G
Settings: Cathepsin G IC50

In the case of CC[C@H](C)[C@@H]1NC(=O)[C@@H]2CCCN2C(=O)[C@@H]2CCCN2C(=O)[C@H](CC(=O)O)NC(=O)[C@H](CO)NC(=O)[C@H](CCCCN)NC(=O)[C@H]([C@@H](C)O)NC(=O)[C@@H]2CSSC[C@H](NC1=O)C(=O)N[C@@H](CC(N)=O)C(=O)N1CCC[C@@H]1C(=O)N1CCC[C@H]1C(=O)N[C@@H](CCc1ccccc1)C(=O)N2 [Ex. 27] (HELM PEPTIDE1{[O=C([C@H](CCc1ccccc1)N[*:1])[*:2]].C.T.K.S.D.P.P.I.C.N.[dP].P}$PEPTIDE1,PEPTIDE1,2:R3-10:R3|PEPTIDE1,PEPTIDE1,1:R1-13:R2$$$V2.0), the IC50 is reported as 0.048 µM.

Target: T2, Elastase from human neutrophils (Homo sapiens, UniProt P08246)
T2 sequence (P08246 30-267): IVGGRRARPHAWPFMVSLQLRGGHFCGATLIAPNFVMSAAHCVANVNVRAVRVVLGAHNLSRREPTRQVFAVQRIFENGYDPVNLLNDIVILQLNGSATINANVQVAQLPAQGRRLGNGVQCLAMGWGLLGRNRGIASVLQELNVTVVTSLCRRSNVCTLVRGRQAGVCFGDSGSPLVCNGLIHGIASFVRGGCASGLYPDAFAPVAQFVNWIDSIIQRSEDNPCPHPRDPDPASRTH
Assay: Enzymatic assay, elastase
Settings: Elastase IC50

In order of falling IC50:
1. CCCC[C@@H]1NC(=O)[C@H](CCC(N)=O)NC(=O)[C@H]2CCCN2C(=O)[C@H](CCC(N)=O)NC(=O)[C@@H]2CSSC[C@H](NC1=O)C(=O)N[C@@H]([C@@H](C)O)C(=O)N[C@@H](C)C(=O)N[C@@H](CO)C(=O)N[C@@H](CC1CCCCC1)C(=O)N1CCC[C@H]1C(=O)N1CCC[C@H]1C(=O)N[C@@H](CCC(N)=O)C(=O)N2 [compound 164] (HELM PEPTIDE1{[Nle].C.T.A.S.[Cha].P.P.Q.C.Q.[dP].Q}$PEPTIDE1,PEPTIDE1,2:R3-10:R3|PEPTIDE1,PEPTIDE1,1:R1-13:R2$$$V2.0)  0.024 µM
2. CCCCCCCC[C@@H]1NC(=O)[C@H](CCC(=O)O)NC(=O)[C@@H](CCCCN)NC(=O)[C@H](Cc2ccc(O)cc2)NC(=O)[C@@H]2CSSC[C@H](NC1=O)C(=O)N[C@@H]([C@@H](C)O)C(=O)N[C@@H](C)C(=O)N[C@@H](CO)C(=O)N[C@@H]([C@@H](C)CC)C(=O)N1CCC[C@H]1C(=O)N1CCC[C@H]1C(=O)N[C@@H](CCC(N)=O)C(=O)N2 [compound 165] (HELM PEPTIDE1{[CCCCCCCC[C@H](N[*:1])C(=O)[*:2]].C.T.A.S.I.P.P.Q.C.Y.[dK].E}$PEPTIDE1,PEPTIDE1,2:R3-10:R3|PEPTIDE1,PEPTIDE1,1:R1-13:R2$$$V2.0)  0.022 µM
3. CCCC[C@@H]1NC(=O)[C@H](CCC(N)=O)NC(=O)[C@H]2CCCN2C(=O)[C@H](Cc2ccc(O)cc2)NC(=O)[C@@H]2CSSC[C@H](NC1=O)C(=O)N[C@@H]([C@@H](C)O)C(=O)N[C@@H](C)C(=O)N[C@@H](CO)C(=O)N[C@@H](CC1CCCCC1)C(=O)N1CCC[C@H]1C(=O)N1CCC[C@H]1C(=O)N[C@@H](CCC(N)=O)C(=O)N2 [compound 170] (HELM PEPTIDE1{[Nle].C.T.A.S.[Cha].P.P.Q.C.Y.[dP].Q}$PEPTIDE1,PEPTIDE1,2:R3-10:R3|PEPTIDE1,PEPTIDE1,1:R1-13:R2$$$V2.0)  0.016 µM
4. CCCC[C@@H]1NC(=O)[C@H](CCC(N)=O)NC(=O)[C@@H](CCC(N)=O)NC(=O)[C@H](CC2CCCCC2)NC(=O)[C@@H]2CSSC[C@H](NC1=O)C(=O)N[C@@H]([C@@H](C)O)C(=O)N[C@@H](C)C(=O)N[C@@H](CO)C(=O)N[C@@H](CC1CCCCC1)C(=O)N1CCC[C@H]1C(=O)N1CCC[C@H]1C(=O)N[C@@H](CCC(N)=O)C(=O)N2 [Ex. 171] (HELM PEPTIDE1{[Nle].C.T.A.S.[Cha].P.P.Q.C.[Cha].[dQ].Q}$PEPTIDE1,PEPTIDE1,2:R3-10:R3|PEPTIDE1,PEPTIDE1,1:R1-13:R2$$$V2.0)  0.013 µM
5. CCCC[C@@H]1NC(=O)[C@H](CCC(N)=O)NC(=O)[C@H]2CCCN2C(=O)[C@H](CC2CCCCC2)NC(=O)[C@@H]2CSSC[C@H](NC1=O)C(=O)N[C@@H]([C@@H](C)O)C(=O)N[C@@H](C)C(=O)N[C@@H](CO)C(=O)N[C@@H](CC1CCCCC1)C(=O)N1CCC[C@H]1C(=O)N1CCC[C@H]1C(=O)N[C@@H](CCC(N)=O)C(=O)N2 [compound 172] (HELM PEPTIDE1{[Nle].C.T.A.S.[Cha].P.P.Q.C.[Cha].[dP].Q}$PEPTIDE1,PEPTIDE1,2:R3-10:R3|PEPTIDE1,PEPTIDE1,1:R1-13:R2$$$V2.0)  0.013 µM
6. C[C@@H]1NC(=O)[C@H]([C@@H](C)O)NC(=O)[C@@H]2CSSC[C@H](NC(=O)[C@H](CCC(N)=O)NC(=O)[C@@H]3CCCN3C(=O)[C@@H]3CCCN3C(=O)[C@H](CC3CCCCC3)NC(=O)[C@H](CO)NC1=O)C(=O)N[C@@H](Cc1ccc(O)cc1)C(=O)N1CCC[C@@H]1C(=O)N1CCC[C@H]1C(=O)N[C@@H](CCc1ccccc1)C(=O)N2 [Ex. 162] (HELM PEPTIDE1{[O=C([C@H](CCc1ccccc1)N[*:1])[*:2]].C.T.A.S.[Cha].P.P.Q.C.Y.[dP].P}$PEPTIDE1,PEPTIDE1,2:R3-10:R3|PEPTIDE1,PEPTIDE1,1:R1-13:R2$$$V2.0)  0.0125 µM
7. CC[C@H](C)[C@@H]1NC(=O)[C@H](CO)NC(=O)[C@H](C)NC(=O)[C@H]([C@@H](C)O)NC(=O)[C@@H]2CSSC[C@H](NC(=O)[C@H](CCC(N)=O)NC(=O)[C@@H]3CCCN3C(=O)[C@@H]3CCCN3C1=O)C(=O)N[C@@H](Cc1ccc(O)cc1)C(=O)N1CCC[C@@H]1C(=O)N[C@@H](CCC(N)=O)C(=O)N[C@@H](CCc1ccccc1)C(=O)N2 [compound 173] (HELM PEPTIDE1{[O=C([C@H](CCc1ccccc1)N[*:1])[*:2]].C.T.A.S.I.P.P.Q.C.Y.[dP].Q}$PEPTIDE1,PEPTIDE1,2:R3-10:R3|PEPTIDE1,PEPTIDE1,1:R1-13:R2$$$V2.0)  0.012 µM
8. CCCC[C@@H]1NC(=O)[C@H](CCC(N)=O)NC(=O)[C@H]2CCCN2C(=O)[C@H](Cc2ccccc2Cl)NC(=O)[C@@H]2CSSC[C@H](NC1=O)C(=O)N[C@@H]([C@@H](C)O)C(=O)N[C@@H](C)C(=O)N[C@@H](CO)C(=O)N[C@@H](CC1CCCCC1)C(=O)N1CCC[C@H]1C(=O)N1CCC[C@H]1C(=O)N[C@@H](CCC(N)=O)C(=O)N2 [compound 175] (HELM PEPTIDE1{[Nle].C.T.A.S.[Cha].P.P.Q.C.[O=C([C@H](Cc1ccccc1Cl)N[*:1])[*:2]].[dP].Q}$PEPTIDE1,PEPTIDE1,2:R3-10:R3|PEPTIDE1,PEPTIDE1,1:R1-13:R2$$$V2.0)  0.012 µM
9. CCCCCCCC[C@@H]1NC(=O)[C@@H]2CCCN2C(=O)[C@H]2CCCN2C(=O)[C@H](Cc2ccc(O)cc2)NC(=O)[C@@H]2CSSC[C@H](NC1=O)C(=O)N[C@@H]([C@@H](C)O)C(=O)N[C@@H](C)C(=O)N[C@@H](CO)C(=O)N[C@@H](CC1CCCCC1)C(=O)N1CCC[C@H]1C(=O)N1CCC[C@H]1C(=O)N[C@@H](CCC(N)=O)C(=O)N2 [Ex. 150] (HELM PEPTIDE1{[CCCCCCCC[C@H](N[*:1])C(=O)[*:2]].C.T.A.S.[Cha].P.P.Q.C.Y.[dP].P}$PEPTIDE1,PEPTIDE1,2:R3-10:R3|PEPTIDE1,PEPTIDE1,1:R1-13:R2$$$V2.0)  0.01 µM
10. CCCCCCCC[C@@H]1NC(=O)[C@H](CO)NC(=O)[C@H](C)NC(=O)[C@H]([C@@H](C)O)NC(=O)[C@@H]2CSSC[C@H](NC(=O)[C@H](CCC(N)=O)NC(=O)[C@@H]3CCCN3C(=O)[C@@H]3CCCN3C1=O)C(=O)N[C@@H](Cc1ccccc1)C(=O)N1CCC[C@@H]1C(=O)N1CCC[C@H]1C(=O)N[C@@H](CCc1ccccc1)C(=O)N2 [Ex. 152] (HELM PEPTIDE1{[O=C([C@H](CCc1ccccc1)N[*:1])[*:2]].C.T.A.S.[CCCCCCCC[C@H](N[*:1])C(=O)[*:2]].P.P.Q.C.F.[dP].P}$PEPTIDE1,PEPTIDE1,2:R3-10:R3|PEPTIDE1,PEPTIDE1,1:R1-13:R2$$$V2.0)  0.009 µM
11. CCCCCCCC[C@@H]1NC(=O)[C@@H]2CCCN2C(=O)[C@H]2CCCN2C(=O)[C@H](Cc2ccccc2)NC(=O)[C@@H]2CSSC[C@H](NC1=O)C(=O)N[C@@H]([C@@H](C)O)C(=O)N[C@@H](C)C(=O)N[C@@H](CO)C(=O)N[C@@H](CC1CCCCC1)C(=O)N1CCC[C@H]1C(=O)N1CCC[C@H]1C(=O)N[C@@H](CCC(N)=O)C(=O)N2 [Ex. 157] (HELM PEPTIDE1{[CCCCCCCC[C@H](N[*:1])C(=O)[*:2]].C.T.A.S.[Cha].P.P.Q.C.F.[dP].P}$PEPTIDE1,PEPTIDE1,2:R3-10:R3|PEPTIDE1,PEPTIDE1,1:R1-13:R2$$$V2.0)  0.007 µM
12. CCCCCCCC[C@@H]1NC(=O)[C@@H]2CCCN2C(=O)[C@H]2CCCN2C(=O)[C@H](CCC(N)=O)NC(=O)[C@@H]2CSSC[C@H](NC1=O)C(=O)N[C@@H]([C@@H](C)O)C(=O)N[C@@H](C)C(=O)N[C@@H](CO)C(=O)N[C@@H](CC1CCCCC1)C(=O)N1CCC[C@H]1C(=O)N1CCC[C@H]1C(=O)N[C@@H](CCC(N)=O)C(=O)N2 [Ex. 159] (HELM PEPTIDE1{[CCCCCCCC[C@H](N[*:1])C(=O)[*:2]].C.T.A.S.[Cha].P.P.Q.C.Q.[dP].P}$PEPTIDE1,PEPTIDE1,2:R3-10:R3|PEPTIDE1,PEPTIDE1,1:R1-13:R2$$$V2.0)  0.007 µM
13. CCCCCCCC[C@@H]1NC(=O)[C@H](CO)NC(=O)[C@H](C)NC(=O)[C@H]([C@@H](C)O)NC(=O)[C@@H]2CSSC[C@H](NC(=O)[C@H](CCC(N)=O)NC(=O)[C@@H]3CCCN3C(=O)[C@@H]3CCCN3C1=O)C(=O)N[C@@H](Cc1ccc(O)cc1)C(=O)N1CCC[C@@H]1C(=O)N1CCC[C@H]1C(=O)N[C@@H](CCc1ccccc1)C(=O)N2 [Ex. 161] (HELM PEPTIDE1{[O=C([C@H](CCc1ccccc1)N[*:1])[*:2]].C.T.A.S.[CCCCCCCC[C@H](N[*:1])C(=O)[*:2]].P.P.Q.C.Y.[dP].P}$PEPTIDE1,PEPTIDE1,2:R3-10:R3|PEPTIDE1,PEPTIDE1,1:R1-13:R2$$$V2.0)  0.006 µM
14. CCCCCCCC[C@@H]1NC(=O)[C@H](CCC(N)=O)NC(=O)[C@H]2CCCN2C(=O)[C@H](CCC(N)=O)NC(=O)[C@@H]2CSSC[C@H](NC1=O)C(=O)N[C@@H]([C@@H](C)O)C(=O)N[C@@H](C)C(=O)N[C@@H](CO)C(=O)N[C@@H](CCCCCCCC)C(=O)N1CCC[C@H]1C(=O)N1CCC[C@H]1C(=O)N[C@@H](CCC(N)=O)C(=O)N2 [compound 178] (HELM PEPTIDE1{[CCCCCCCC[C@H](N[*:1])C(=O)[*:2]].C.T.A.S.[CCCCCCCC[C@H](N[*:1])C(=O)[*:2]].P.P.Q.C.Q.[dP].Q}$PEPTIDE1,PEPTIDE1,2:R3-10:R3|PEPTIDE1,PEPTIDE1,1:R1-13:R2$$$V2.0)  0.006 µM
